Molecular target: Sodium channel protein type 9 subunit alpha (Homo sapiens, UniProt Q15858)
Assay: In Vitro Electrophysiology: Electrophysiological studies are performed with an IonWorks Quattro (Molecular Devices Corp.) automated patch-clamp electrophysiology platform as described by (Schroeder K et al. Journal of Biomolecular Screening 2003, 8 (1), 50-64). Buffers for the experiments have the following composition (mM): Internal solution; K-gluconate 100, KCl 40, MgCl2 3.2, HEPES 5, EGTA 3, pH 7.3. To this amphotericin B is added to final concentration of 0.1 mg/ml to generate access solution. External solution; Dulbecco's Phosphate buffered saline (D-PBS) NaCl 137.93, KCl 2.67, KH2PO4 1.47, Na2HPO4 8.06, CaCl2 0.90, MgCl2 0.49. Prior to the experiment the cells expressing the voltage-gated ion channel of interest are detached from the tissue culture flasks, centrifuged and resuspended in D-PBS. Compounds are prepared and serially diluted in DMSO and finally diluted 1:100 in D-PBS. Cells are exposed to compounds through the pipetting system integrated into the platform and the voltage-gated ion channel of interest is activated with specific voltage stimulation protocols. The following voltage stimulation protocol is used for testing compounds against the voltage-gated sodium channel Nav1.7; from a holding potential of −100 mV a train of eight 60 ms depolarising steps to −20 mV at a frequency of 14 Hz are employed followed by a further step to −20 mV for 2000 ms. […]

Sequence of Sodium channel protein type 9 subunit alpha (Q15858 whole entry): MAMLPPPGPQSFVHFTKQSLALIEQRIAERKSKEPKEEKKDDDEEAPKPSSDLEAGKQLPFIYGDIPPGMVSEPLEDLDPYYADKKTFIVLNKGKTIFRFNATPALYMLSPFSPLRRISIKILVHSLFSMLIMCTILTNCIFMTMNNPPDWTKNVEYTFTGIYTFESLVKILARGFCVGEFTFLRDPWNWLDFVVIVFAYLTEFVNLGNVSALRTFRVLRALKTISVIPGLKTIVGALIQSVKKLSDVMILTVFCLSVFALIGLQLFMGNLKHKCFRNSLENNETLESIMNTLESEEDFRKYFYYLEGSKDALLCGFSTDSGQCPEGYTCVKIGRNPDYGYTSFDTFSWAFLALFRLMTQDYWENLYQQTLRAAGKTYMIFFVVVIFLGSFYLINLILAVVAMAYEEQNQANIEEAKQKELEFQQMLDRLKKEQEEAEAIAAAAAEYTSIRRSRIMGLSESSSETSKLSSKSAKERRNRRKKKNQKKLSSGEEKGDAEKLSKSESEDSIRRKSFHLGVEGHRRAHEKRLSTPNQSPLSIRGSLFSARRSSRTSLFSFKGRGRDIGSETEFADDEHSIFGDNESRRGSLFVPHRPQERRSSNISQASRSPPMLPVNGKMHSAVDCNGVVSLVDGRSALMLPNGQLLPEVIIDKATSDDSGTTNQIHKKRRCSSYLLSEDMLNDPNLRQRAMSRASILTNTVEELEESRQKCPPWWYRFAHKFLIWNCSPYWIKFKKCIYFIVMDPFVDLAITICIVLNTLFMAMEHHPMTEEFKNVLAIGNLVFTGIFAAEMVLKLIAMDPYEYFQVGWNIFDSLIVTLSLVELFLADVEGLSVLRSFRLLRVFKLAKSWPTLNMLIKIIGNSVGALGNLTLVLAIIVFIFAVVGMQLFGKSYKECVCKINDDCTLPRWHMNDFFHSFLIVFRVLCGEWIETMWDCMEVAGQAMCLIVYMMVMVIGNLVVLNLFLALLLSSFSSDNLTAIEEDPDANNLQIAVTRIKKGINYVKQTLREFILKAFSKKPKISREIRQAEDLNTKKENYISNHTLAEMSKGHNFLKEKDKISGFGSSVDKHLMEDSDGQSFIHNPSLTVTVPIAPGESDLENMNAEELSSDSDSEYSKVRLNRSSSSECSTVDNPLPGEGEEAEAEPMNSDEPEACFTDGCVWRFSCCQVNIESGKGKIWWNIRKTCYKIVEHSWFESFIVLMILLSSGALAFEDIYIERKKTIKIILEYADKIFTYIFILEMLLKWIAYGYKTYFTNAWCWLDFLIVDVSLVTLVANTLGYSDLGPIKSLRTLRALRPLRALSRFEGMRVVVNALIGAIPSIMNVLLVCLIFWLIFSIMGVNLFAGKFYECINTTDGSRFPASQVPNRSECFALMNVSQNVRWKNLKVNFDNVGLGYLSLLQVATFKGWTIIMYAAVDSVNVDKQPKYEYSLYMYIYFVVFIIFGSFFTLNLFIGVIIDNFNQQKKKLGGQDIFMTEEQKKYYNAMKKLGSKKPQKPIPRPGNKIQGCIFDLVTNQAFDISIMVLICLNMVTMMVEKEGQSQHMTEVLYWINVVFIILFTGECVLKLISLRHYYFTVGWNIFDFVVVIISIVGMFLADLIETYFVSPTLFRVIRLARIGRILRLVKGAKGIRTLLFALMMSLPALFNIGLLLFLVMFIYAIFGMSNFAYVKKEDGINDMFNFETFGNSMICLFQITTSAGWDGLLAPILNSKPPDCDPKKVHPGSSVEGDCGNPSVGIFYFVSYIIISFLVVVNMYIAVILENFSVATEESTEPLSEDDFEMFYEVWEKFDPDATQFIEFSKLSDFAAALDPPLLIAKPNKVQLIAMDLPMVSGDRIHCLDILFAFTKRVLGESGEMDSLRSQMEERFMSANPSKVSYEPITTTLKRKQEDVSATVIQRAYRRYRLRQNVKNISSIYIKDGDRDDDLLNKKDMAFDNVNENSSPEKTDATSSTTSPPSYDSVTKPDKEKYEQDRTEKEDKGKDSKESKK

Row | Compound | IC50
1 | COc1ccc(OCC(F)(F)C(F)(F)F)c(-c2ccc3c(N)nn(C)c3c2)c1 | 1230 nM
2 | COc1cccc(-c2ccc3c(N)nn(C)c3c2)c1OCC(F)F | 1070 nM

Source: ChEMBL document CHEMBL5726143, “Aminoindazole derivatives as sodium channel inhibitors” (2019)
